Experimental data reported in ChEMBL document CHEMBL4350957, “Use of the 4-Hydroxytriazole Moiety as a Bioisosteric Tool in the Development of Ionotropic Glutamate Receptor Ligands” (J Med Chem, 2019).
Activity calls are given as the source filed them. No cut-off for these calls is given here.

How the values were obtained:
[1] = target: Glutamate receptor ionotropic, AMPA (Rattus norvegicus, UniProt P19490+P19491+P19492+P19493)
Glutamate receptor 1 [2] = target: Glutamate receptor 1 (Rattus norvegicus, UniProt P19490); experiment: biochemical
Glutamate receptor 3 [3] = target: Glutamate receptor 3 (Rattus norvegicus, UniProt P19492); experiment: biochemical
Glutamate receptor 3 (Rattus norvegicus, UniProt P19492), sequence (P19492 whole entry): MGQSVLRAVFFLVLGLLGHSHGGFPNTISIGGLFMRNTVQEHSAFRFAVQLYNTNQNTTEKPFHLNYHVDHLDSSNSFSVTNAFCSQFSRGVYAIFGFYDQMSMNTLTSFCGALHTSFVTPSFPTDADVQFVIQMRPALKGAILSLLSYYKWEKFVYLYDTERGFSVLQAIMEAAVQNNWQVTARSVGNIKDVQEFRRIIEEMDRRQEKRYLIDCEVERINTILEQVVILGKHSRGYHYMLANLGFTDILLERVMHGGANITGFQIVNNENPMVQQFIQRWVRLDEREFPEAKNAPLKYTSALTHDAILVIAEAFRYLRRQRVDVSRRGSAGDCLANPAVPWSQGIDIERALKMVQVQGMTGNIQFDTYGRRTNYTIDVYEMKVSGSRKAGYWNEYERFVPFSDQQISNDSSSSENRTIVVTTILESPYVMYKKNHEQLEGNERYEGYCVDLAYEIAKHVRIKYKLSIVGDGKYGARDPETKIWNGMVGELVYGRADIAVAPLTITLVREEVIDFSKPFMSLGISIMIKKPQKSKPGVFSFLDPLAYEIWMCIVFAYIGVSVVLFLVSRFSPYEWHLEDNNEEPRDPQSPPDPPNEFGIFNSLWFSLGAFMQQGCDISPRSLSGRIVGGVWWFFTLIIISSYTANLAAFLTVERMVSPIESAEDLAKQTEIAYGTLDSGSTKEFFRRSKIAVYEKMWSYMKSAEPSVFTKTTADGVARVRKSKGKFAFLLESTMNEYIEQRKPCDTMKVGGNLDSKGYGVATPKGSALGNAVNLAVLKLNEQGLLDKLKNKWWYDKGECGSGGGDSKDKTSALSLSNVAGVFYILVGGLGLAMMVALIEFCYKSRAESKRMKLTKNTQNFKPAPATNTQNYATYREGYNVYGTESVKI

Glutamate receptor 4 [4] = target: Glutamate receptor 4 (Rattus norvegicus, UniProt P19493); experiment: biochemical
Glutamate receptor 4 (Rattus norvegicus, UniProt P19493), sequence (P19493 whole entry): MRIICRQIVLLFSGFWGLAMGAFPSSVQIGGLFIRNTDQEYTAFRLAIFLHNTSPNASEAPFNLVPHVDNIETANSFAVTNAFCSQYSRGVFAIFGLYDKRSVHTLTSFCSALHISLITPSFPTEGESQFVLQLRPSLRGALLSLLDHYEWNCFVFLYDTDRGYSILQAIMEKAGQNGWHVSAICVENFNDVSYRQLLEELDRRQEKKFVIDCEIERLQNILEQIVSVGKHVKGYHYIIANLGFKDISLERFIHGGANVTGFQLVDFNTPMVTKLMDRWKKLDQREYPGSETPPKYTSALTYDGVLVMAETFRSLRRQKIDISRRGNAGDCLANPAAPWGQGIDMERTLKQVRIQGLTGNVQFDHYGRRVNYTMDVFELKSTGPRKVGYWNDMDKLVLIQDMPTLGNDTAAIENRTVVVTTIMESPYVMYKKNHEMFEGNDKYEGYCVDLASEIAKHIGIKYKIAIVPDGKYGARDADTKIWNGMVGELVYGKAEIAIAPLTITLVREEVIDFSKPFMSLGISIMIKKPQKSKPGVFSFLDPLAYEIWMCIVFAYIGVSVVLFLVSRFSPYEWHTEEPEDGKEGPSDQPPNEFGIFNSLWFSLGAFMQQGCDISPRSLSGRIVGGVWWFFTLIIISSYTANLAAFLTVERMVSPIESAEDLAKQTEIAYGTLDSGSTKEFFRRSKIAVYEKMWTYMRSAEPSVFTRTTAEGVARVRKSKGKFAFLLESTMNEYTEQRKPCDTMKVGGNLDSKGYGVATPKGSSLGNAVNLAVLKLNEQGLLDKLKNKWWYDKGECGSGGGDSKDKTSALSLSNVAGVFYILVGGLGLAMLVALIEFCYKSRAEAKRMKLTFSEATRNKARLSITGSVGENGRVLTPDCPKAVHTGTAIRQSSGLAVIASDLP

Glutamate receptor 1 [5] = target: T1, Glutamate receptor 1 (Homo sapiens, UniProt P42261)
T1 sequence (P42261 whole entry): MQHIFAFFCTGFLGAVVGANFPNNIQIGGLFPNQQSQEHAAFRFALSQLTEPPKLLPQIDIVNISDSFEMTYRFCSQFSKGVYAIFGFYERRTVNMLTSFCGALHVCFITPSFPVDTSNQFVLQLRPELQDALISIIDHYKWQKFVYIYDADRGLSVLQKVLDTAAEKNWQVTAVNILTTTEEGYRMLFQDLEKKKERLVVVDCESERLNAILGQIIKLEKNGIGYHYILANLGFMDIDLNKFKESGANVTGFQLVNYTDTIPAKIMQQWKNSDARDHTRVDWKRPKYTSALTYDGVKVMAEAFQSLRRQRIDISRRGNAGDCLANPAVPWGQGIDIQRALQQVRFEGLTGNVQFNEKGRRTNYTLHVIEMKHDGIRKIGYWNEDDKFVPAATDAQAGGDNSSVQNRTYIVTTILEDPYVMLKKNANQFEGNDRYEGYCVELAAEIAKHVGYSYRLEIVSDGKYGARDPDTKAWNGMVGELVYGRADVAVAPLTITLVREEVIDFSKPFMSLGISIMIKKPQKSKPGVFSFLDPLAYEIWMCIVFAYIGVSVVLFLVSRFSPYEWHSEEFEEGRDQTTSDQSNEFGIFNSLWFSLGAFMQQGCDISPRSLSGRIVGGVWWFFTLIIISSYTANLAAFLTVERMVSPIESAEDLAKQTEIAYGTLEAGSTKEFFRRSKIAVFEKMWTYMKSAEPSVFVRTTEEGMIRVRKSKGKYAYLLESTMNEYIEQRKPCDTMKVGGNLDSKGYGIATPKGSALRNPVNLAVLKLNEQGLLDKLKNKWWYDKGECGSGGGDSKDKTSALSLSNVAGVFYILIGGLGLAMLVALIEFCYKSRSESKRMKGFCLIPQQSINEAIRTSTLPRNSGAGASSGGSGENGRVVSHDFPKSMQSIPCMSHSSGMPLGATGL

Glutamate receptor 4 [6] = target: T2, Glutamate receptor 4 (Homo sapiens, UniProt P48058); experiment: Agonist activity at GluA4 receptor (unknown origin) expressed in HEK293 cells assessed induction of S-glutamate-induced calcium flux at 1000 uM measured after 90 secs in presence of cyclothiazide by Fluo4-AM dye-based fluorescence assay relative to S-glutamate; format: cell-based
T2 sequence (P48058 whole entry): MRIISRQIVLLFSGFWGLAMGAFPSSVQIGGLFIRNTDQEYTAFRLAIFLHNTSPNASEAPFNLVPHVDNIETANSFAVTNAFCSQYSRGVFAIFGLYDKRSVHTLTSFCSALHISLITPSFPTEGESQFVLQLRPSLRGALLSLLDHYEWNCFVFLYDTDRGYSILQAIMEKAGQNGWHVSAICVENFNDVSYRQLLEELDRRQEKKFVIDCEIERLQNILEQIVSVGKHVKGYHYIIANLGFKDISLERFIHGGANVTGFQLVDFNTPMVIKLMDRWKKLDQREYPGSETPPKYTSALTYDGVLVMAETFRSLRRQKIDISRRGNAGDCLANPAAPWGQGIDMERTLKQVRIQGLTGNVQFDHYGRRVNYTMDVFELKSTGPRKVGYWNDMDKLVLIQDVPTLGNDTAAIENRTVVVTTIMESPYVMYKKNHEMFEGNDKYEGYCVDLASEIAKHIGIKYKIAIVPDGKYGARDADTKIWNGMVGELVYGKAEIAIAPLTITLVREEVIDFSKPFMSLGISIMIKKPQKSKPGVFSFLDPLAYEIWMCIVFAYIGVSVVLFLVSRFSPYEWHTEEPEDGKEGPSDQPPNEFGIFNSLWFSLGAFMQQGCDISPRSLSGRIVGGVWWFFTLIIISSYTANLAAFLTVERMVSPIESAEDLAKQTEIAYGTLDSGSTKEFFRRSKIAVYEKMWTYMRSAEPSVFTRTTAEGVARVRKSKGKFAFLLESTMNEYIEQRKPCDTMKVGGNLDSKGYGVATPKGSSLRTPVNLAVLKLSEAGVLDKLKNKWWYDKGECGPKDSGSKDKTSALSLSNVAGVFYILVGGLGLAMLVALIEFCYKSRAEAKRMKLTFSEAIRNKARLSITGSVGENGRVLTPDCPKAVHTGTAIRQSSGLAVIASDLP

Glutamate receptor 2 [7] = target: Glutamate receptor 2 (Rattus norvegicus, UniProt P19491); experiment: biochemical
Glutamate receptor 4 [8] = target: T2, Glutamate receptor 4
Glutamate receptor 3 [9] = target: T3, Glutamate receptor 3 (Homo sapiens, UniProt P42263); experiment: Agonist activity at GluA3 receptor (unknown origin) expressed in HEK293 cells assessed induction of S-glutamate-induced calcium flux at 300 uM measured after 90 secs in presence of cyclothiazide by Fluo4-AM dye-based fluorescence assay relative to S-glutamate; format: cell-based
T3 sequence (P42263 whole entry): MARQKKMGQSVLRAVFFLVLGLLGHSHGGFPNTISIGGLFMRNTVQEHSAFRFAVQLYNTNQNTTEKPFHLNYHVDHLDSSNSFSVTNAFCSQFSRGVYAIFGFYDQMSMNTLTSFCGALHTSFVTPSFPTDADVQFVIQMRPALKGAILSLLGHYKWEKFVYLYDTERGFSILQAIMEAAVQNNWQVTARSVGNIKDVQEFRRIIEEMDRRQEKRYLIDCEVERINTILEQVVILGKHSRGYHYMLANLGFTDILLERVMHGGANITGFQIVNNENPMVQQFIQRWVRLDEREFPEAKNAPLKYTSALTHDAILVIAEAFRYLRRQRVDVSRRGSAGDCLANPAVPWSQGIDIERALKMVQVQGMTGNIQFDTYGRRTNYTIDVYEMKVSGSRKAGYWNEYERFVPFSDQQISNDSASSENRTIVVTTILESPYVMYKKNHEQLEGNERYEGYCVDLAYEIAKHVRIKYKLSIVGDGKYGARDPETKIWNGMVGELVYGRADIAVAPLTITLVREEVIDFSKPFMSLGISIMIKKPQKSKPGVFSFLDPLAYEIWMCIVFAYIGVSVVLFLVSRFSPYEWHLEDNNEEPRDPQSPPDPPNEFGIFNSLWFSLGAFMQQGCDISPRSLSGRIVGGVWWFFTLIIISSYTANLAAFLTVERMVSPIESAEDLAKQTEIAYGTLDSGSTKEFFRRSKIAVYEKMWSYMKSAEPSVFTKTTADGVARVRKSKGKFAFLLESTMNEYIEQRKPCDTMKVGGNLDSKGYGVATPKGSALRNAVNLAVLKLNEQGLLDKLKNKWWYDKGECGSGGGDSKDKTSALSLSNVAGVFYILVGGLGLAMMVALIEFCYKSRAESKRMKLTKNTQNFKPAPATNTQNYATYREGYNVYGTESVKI

Glutamate receptor 2 [10] = target: Glutamate receptor 2 (Homo sapiens, UniProt P42262)
Glutamate receptor 3 [11] = target: T3, Glutamate receptor 3
Glutamate receptor 1 [12] = target: T1, Glutamate receptor 1; experiment: Agonist activity at GluA1 receptor (unknown origin) expressed in HEK293 cells assessed induction of S-glutamate-induced calcium flux at 300 uM measured after 90 secs in presence of cyclothiazide by Fluo4-AM dye-based fluorescence assay relative to S-glutamate; format: cell-based
[13] = target: T4, Glutamate NMDA receptor; Grin1/Grin2a (Rattus norvegicus) (UniProt P35439+Q00959); experiment: Agonist activity at recombinant rat GluN1a/GluN2A expressed in Xenopus laevis oocytes at 300 uM at -40 mV holding potential in presence of glutamate by two-electrode voltage clamp electrophysiology method relative to control; format: cell-based
[14] = target: T5, Ionotropic glutamate receptor NMDA 1/2D (Rattus norvegicus, UniProt P35439+Q62645)
[15] = target: T4, Glutamate NMDA receptor; Grin1/Grin2a (Rattus norvegicus); experiment: Agonist activity at recombinant rat GluN1a/GluN2A expressed in Xenopus laevis oocytes at 100 uM at -40 mV holding potential by two-electrode voltage clamp electrophysiology method; format: cell-based
[16] = target: T6, Glutamate NMDA receptor; Grin1/Grin2b (Rattus norvegicus) (UniProt P35439+Q00960); experiment: Agonist activity at recombinant rat GluN1a/GluN2B expressed in Xenopus laevis oocytes at 100 uM at -40 mV holding potential by two-electrode voltage clamp electrophysiology method; format: cell-based
[17] = target: T7, Glutamate NMDA receptor; Grin1/Grin2c (Rattus norvegicus) (UniProt P35439+Q00961); experiment: Agonist activity at recombinant rat GluN1a/GluN2C expressed in Xenopus laevis oocytes at 100 uM at -40 mV holding potential by two-electrode voltage clamp electrophysiology method; format: cell-based
[18] = target: T6, Glutamate NMDA receptor; Grin1/Grin2b (Rattus norvegicus); experiment: Agonist activity at recombinant rat GluN1a/GluN2B expressed in Xenopus laevis oocytes at 300 uM at -40 mV holding potential in presence of glutamate by two-electrode voltage clamp electrophysiology method relative to control; format: cell-based
[19] = target: T5, Ionotropic glutamate receptor NMDA 1/2D; remark: listed apart in the source
[20] = target: T8, Ionotropic glutamate receptor NMDA 1/2D (Rattus norvegicus) (UniProt P35439+Q62645); experiment: Agonist activity at recombinant rat GluN1a/GluN2D expressed in Xenopus laevis oocytes at 100 uM at -40 mV holding potential by two-electrode voltage clamp electrophysiology method; format: cell-based
[21] = target: T8, Ionotropic glutamate receptor NMDA 1/2D (Rattus norvegicus); experiment: Agonist activity at recombinant rat GluN1a/GluN2D expressed in Xenopus laevis oocytes at -40 mV holding potential in presence of glycine by two-electrode voltage clamp electrophysiology method relative to glycine; format: cell-based
[22] = target: T8, Ionotropic glutamate receptor NMDA 1/2D (Rattus norvegicus); experiment: Agonist activity at recombinant rat GluN1a/GluN2D expressed in Xenopus laevis oocytes at -40 mV holding potential in presence of glutamate by two-electrode voltage clamp electrophysiology method relative to control; format: cell-based
[23] = target: T7, Glutamate NMDA receptor; Grin1/Grin2c (Rattus norvegicus); experiment: Agonist activity at recombinant rat GluN1a/GluN2C expressed in Xenopus laevis oocytes at -40 mV holding potential in presence of glutamate by two-electrode voltage clamp electrophysiology method relative to control; format: cell-based
[24] = target: T4, Glutamate NMDA receptor; Grin1/Grin2a (Rattus norvegicus); experiment: Agonist activity at recombinant rat GluN1a/GluN2A expressed in Xenopus laevis oocytes at 300 uM at -40 mV holding potential in presence of glycine by two-electrode voltage clamp electrophysiology method relative to glycine; format: cell-based

Row | Structure (SMILES) | IC50 [1] | Ki (Glutamate NMDA receptor) | Ki (Glutamate receptor 3 [3]) | Ki (Glutamate receptor 4 [4]) | Ki (Glutamate receptor 2 [7]) | EC50 (Glutamate receptor 4 [8]) | further results
1 | CCCn1nc(O)c(CC(N)C(=O)O)n1 (racemic) | > 100 µM | > 100 µM | > 100 µM | > 100 µM | > 100 µM |  | Ki (Glutamate receptor 1 [2]): > 100 µM; EC50 (Glutamate receptor 1 [5]): > 1000 µM; %max (Glutamate receptor 4 [6]): > 5%
2 | Cn1nnc(-c2onc(O)c2CC(N)C(=O)O)n1 (centres undefined) |  |  | 0.0022 µM | 0.0027 µM | 0.0039 µM |  | 
3 | CCCn1nnc(O)c1CC(N)C(=O)O (racemic) |  | > 100 µM |  | 100 µM | 3.25 µM | 51 µM | %max (Glutamate receptor 3 [9]): > 5%
4 | CCn1nc(O)c(CC(N)C(=O)O)n1 (racemic) | > 100 µM | > 100 µM | 100 µM | > 100 µM | > 100 µM | > 1000 µM | Ki (Glutamate receptor 1 [2]): > 100 µM; EC50 (Glutamate receptor 2 [10]): > 1000 µM; EC50 (Glutamate receptor 3 [11]): > 1000 µM; EC50 (Glutamate receptor 1 [5]): > 1000 µM
5 | Cn1nnc(O)c1CC(N)C(=O)O (racemic) |  |  |  |  | 1.87 µM | 56.2 µM | %max (Glutamate receptor 1 [12]): > 5%; %max (Glutamate receptor 3 [9]): > 5%
6 | CN[C@H](CC(=O)O)C(=O)O [N-METHYL-D-ASPARTIC ACID (NMDA)] | > 100 µM |  |  |  |  |  | 
7 | Cn1nc(O)c(C(N)C(=O)O)n1 (racemic) | > 100 µM |  |  |  |  |  | Imax [13]: 38%; EC50 [14]: 35 µM; Activity [15]: inactive; Activity [16]: Active; Activity [17]: Active; Imax [18]: 52%; EC50 [19]: 58 µM; Activity [20]: Active; Imax [21]: 58%; Imax [22]: 98%; Imax [23]: 107%; Imax [24]: inactive
